This is an account of results in US11203574B2 (BioCryst Pharmaceuticals, Inc., priority 2014, dated 2021).

The target in the assay is human plasma kallikrein (Homo sapiens (Human), UniProt P03952). Description: Plasma kallikrein activity assay (chromogenic substrate S2302). The note with it: 2 nM kallikrein, 80 μM S2302, 30° C., pH 7.8; Ki by Cheng-Prusoff equation; values given as ranges; read-out: Ki. It counts as biochemical.
human plasma kallikrein, sequence (P03952 whole entry, looked up): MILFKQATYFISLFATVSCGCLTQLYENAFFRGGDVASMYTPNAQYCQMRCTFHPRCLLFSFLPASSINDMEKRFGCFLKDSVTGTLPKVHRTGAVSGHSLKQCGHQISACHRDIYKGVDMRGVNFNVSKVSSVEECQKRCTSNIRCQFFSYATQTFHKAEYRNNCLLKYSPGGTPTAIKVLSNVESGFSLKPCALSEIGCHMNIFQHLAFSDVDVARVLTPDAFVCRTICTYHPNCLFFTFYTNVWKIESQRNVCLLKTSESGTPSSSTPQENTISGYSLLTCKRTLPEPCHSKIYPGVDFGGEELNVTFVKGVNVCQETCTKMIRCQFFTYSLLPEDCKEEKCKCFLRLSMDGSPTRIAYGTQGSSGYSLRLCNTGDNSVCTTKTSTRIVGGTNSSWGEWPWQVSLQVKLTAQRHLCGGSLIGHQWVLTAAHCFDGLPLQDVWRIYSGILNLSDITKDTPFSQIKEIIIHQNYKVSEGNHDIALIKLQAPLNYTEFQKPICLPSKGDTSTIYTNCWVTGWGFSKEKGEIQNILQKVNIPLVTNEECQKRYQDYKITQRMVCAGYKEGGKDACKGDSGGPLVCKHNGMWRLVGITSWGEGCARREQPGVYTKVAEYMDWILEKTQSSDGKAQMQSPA
human plasma kallikrein, sequence (P03952 whole entry partner, looked up): as the sequence (P03952 whole entry, looked up) above

For the compound `NCc1cccc(-n2nc(C(F)(F)F)cc2C(=O)Nc2cccc(C(OCC3CC3)c3ccccn3)c2)c1` (single isomer, unassigned; (-)) [43g, (−)-1-(3-(aminomethyl)phenyl)-N-(3-((cyclopropylmethoxy)(pyridin-2-yl)methyl)-phenyl)-3-(trifluoromethyl)-1H-pyrazole-5-carboxamide], the Ki (usually the dissociation constant of the complex between target and ligand, obtained from inhibition or displacement) was in the range of 0.0001 to 0.05 µM. In the case of `NCc1cccc(-n2nc(C(F)(F)F)cc2C(=O)Nc2cccc(C(OCC3CC3)c3ccccc3)c2F)c1` (stereo not drawn) [36d, 1-(3-(aminomethyl)phenyl)-N-(3-((cyclopropylmethoxy)(phenyl)methyl)-2-fluorophenyl)-3-(trifluoromethyl)-1H-pyrazole-5-carboxamide] it was 0.0001 to 0.05 µM; in that of `NCc1cccc(-n2nc(C(F)(F)F)cc2C(=O)Nc2cc(C(CCC3CC3)n3ccc(=O)[nH]c3=O)ccc2F)c1` (stereo not drawn) [263d, 1-(3-(aminomethyl)phenyl)-N-(5-(3-cyclopropyl-1-(2,4-dioxo-3,4-dihydropyrimidin-1(2H)-yl)propyl)-2-fluorophenyl)-3-(trifluoromethyl)-1H-pyrazole-5-carboxamide], 0.0001 to 0.05 µM. Turning to `NCc1cccc(-n2nc(C(F)(F)F)cc2C(=O)Nc2cc(C(N)(CCC3CC3)c3ccc(C(N)=O)nc3)ccc2F)c1` (single isomer, unassigned; (+)) [221i, (+)-5-(1-amino-1-(3-(1-(3-(aminomethyl)phenyl)-3-(trifluoromethyl)-1H-pyrazole-5-carboxamido)-4-fluorophenyl)-3-cyclopropylpropyl)picolinamide], the Ki was 0.0001 to 0.05 µM. Consider `NCc1cccc(-n2nc(C(F)(F)F)cc2C(=O)Nc2cccc(C(NC(=O)C3CC3)c3ccccc3)c2)c1` (stereo not drawn) [115e, 1-(3-(aminomethyl)phenyl)-N-(3-(cyclopropanecarboxamido(phenyl)methyl)phenyl)-3-(trifluoromethyl)-1H-pyrazole-5-carboxamide], for which the Ki fell in the range of 0.05 to 0.1 µM. On to `NCc1cccc(-n2nc(C(F)(F)F)cc2C(=O)Nc2cccc(C(O)(CCC3CC3)c3ccccc3)c2)c1` (racemic) [46g, 1-(3-(aminomethyl)phenyl)-N-(3-(3-cyclopropyl-1-hydroxy-1-phenylpropyl)phenyl)-3-(trifluoromethyl)-1H-pyrazole-5-carboxamide], for which the inhibitory constant (Ki) lay in the range of 0.0001 to 0.05 µM.

Consider `Cc1cccc(C(NCC2CC2)c2cccc(NC(=O)c3cc(C(F)(F)F)nn3-c3cccc(CN)c3)c2)c1` (stereo not drawn) [110f, 1-(3-(Aminomethyl)phenyl)-N-(3-((cyclopropylmethylamino)(m-tolyl)methyl)phenyl)-3-(trifluoromethyl)-1H-pyrazole-5-carboxamide], for which the Ki was 0.0001 to 0.05 µM. Turning to `NCc1cccc(-n2nc(C(F)(F)F)cc2C(=O)Nc2cccc(C(NCC3CC3)c3c4ccccc4c(Cl)c4ccccc34)c2)c1` (stereo not drawn) [118f, 1-(3-(aminomethyl)phenyl)-N-(3-((10-chloroanthracen-9-yl)(cyclopropylmethylamino)methyl)phenyl)-3-(trifluoromethyl)-1H-pyrazole-5-carboxamide], the inhibition constant (Ki) is 0.0001 to 0.05 µM. In the case of `NCc1cccc(-n2nc(C(F)(F)F)cc2C(=O)Nc2cccc(C(CCC3CC3)n3ccnc3)c2)c1` (stereo not drawn) [89g, 1-(3-(aminomethyl)phenyl)-N-(3-(3-cyclopropyl-1-(1H-imidazol-1-yl)propyl)phenyl)-3-(trifluoromethyl)-1H-pyrazole-5-carboxamide] it was 0.0001 to 0.05 µM; in that of `NCc1cccc(-n2nc(C(F)(F)F)cc2C(=O)Nc2cccc(C(NCC3CC3)c3cccc(O)c3O)c2)c1` (stereo not drawn) [150f, 1-(3-(aminomethyl)phenyl)-N-(3-((cyclopropylmethylamino)(2,3-dihydroxyphenyl)methyl)phenyl)-3-(trifluoromethyl)-1H-pyrazole-5-carboxamide], 0.0001 to 0.05 µM. On to `NCc1cccc(-n2nc(C(F)(F)F)cc2C(=O)Nc2cccc(C(CCC3CC3)c3ccccc3)c2)c1` (stereo not drawn) [78d, 1-(3-(aminomethyl)phenyl)-N-(3-(3-cyclopropyl-1-phenylpropyl)phenyl)-3-(trifluoromethyl)-1H-pyrazole-5-carboxamide], for which the Ki was 0.0001 to 0.05 µM.

Take `N#Cc1ccc(C(N)(CCC2CC2)c2ccc(F)c(NC(=O)c3cc(C(F)(F)F)nn3-c3ccc4ccnc(N)c4c3)c2)cc1` (single isomer, unassigned; (+)) [254c, (+)-N-(5-(1-amino-1-(4-cyanophenyl)-3-cyclopropylpropyl)-2-fluorophenyl)-1-(1-aminoisoquinolin-7-yl)-3-(trifluoromethyl)-1H-pyrazole-5-carboxamide]: the inhibitory constant (Ki) lay within 0.0001 to 0.05 µM. Turning to `CN1CCc2c(ccc(NC(=O)c3cc(C(F)(F)F)nn3-c3cccc(CN)c3)c2F)C1` [164e, 1-(3-(aminomethyl)phenyl)-N-(5-fluoro-2-methyl-1,2,3,4-tetrahydroisoquinolin-6-yl)-3-(trifluoromethyl)-1H-pyrazole-5-carboxamide], the Ki was in the range of 0.0001 to 0.05 µM. On to `Cc1ccccc1C(NCC1CC1)c1cccc(NC(=O)c2cc(C(F)(F)F)nn2-c2cccc(CN)c2)c1` (stereo not drawn) [193f, 1-(3-(Aminomethyl)phenyl)-N-(3-(((cyclopropylmethyl)amino)(o-tolyl)methyl)phenyl)-3-(trifluoromethyl)-1H-pyrazole-5-carboxamide], for which the inhibitory constant (Ki) was in the range of 0.0001 to 0.05 µM. As for `NCc1cccc(-n2nc(C(F)(F)F)cc2C(=O)Nc2cc(C(N)(CCC3CC3)c3ccncc3)ccc2F)c1` (single isomer, unassigned; (-)) [217d, (−)-N-(5-(1-amino-3-cyclopropyl-1-(pyridin-4-yl)propyl)-2-fluorophenyl)-1-(3-(aminomethyl)phenyl)-3-(trifluoromethyl)-1H-pyrazole-5-carboxamide], the inhibition constant Ki was 0.05 to 0.1 µM.

On to `NCc1cccc(-n2nc(C(F)(F)F)cc2C(=O)Nc2cccc(C(O)(CNC3CC3)c3ccccc3)c2)c1` (stereo not drawn) [99g, 1-(3-(aminomethyl)phenyl)-N-(3-(2-(cyclopropylamino)-1-hydroxy-1-phenylethyl)phenyl)-3-(trifluoromethyl)-1H-pyrazole-5-carboxamide], for which the Ki was in the range of 0.0001 to 0.05 µM.

Take `NCc1cccc(-n2nc(C(F)(F)F)cc2C(=O)Nc2cccc(C(OCC3CC3)c3ccccn3)c2)c1` (single isomer, unassigned; (+)) [43h, (+)-1-(3-(aminomethyl)phenyl)-N-(3-((cyclopropylmethoxy)(pyridin-2-yl)methyl)-phenyl)-3-(trifluoromethyl)-1H-pyrazole-5-carboxamide]: the Ki is 0.0001 to 0.05 µM. Consider `NCc1cccc(-n2nc(C(F)(F)F)cc2C(=O)Nc2cc(C(NCC3CC3)c3ccncc3)ccc2F)c1` (stereo not drawn) [132f, 1-(3-(aminomethyl)phenyl)-N-(5-(((cyclopropylmethyl)amino)(pyridin-4-yl)methyl)-2-fluorophenyl)-3-(trifluoromethyl)-1H-pyrazole-5-carboxamide], for which the inhibition constant (Ki) fell in the range of 0.0001 to 0.05 µM.

For `Cc1cc(C(N)(CCC2CC2)c2ccc(F)c(NC(=O)c3cc(C(F)(F)F)nn3-c3cccc(CN)c3)c2)ccn1` (single isomer, unassigned; (+)) [266j, (+)-N-(5-(1-amino-3-cyclopropyl-1-(2-methylpyridin-4-yl)propyl)-2-fluorophenyl)-1-(3-(aminomethyl)phenyl)-3-(trifluoromethyl)-1H-pyrazole-5-carboxamide], the Ki is 0.0001 to 0.05 µM.

On to `NCc1cccc(-n2nc(C(F)(F)F)cc2C(=O)Nc2cccc(C(CCC3CC3)N3CCCC3=O)c2)c1` (stereo not drawn) [247e, 1-(3-(aminomethyl)phenyl)-N-(3-(3-cyclopropyl-1-(2-oxopyrrolidin-1-yl)propyl)phenyl)-3-(trifluoromethyl)-1H-pyrazole-5-carboxamide], for which the Ki lay within 0.0001 to 0.05 µM. Consider `NCc1cccc(-n2nc(C(F)(F)F)cc2C(=O)Nc2cccc(C(NCC3CC3)c3cc(F)ccc3F)c2)c1` (stereo not drawn) [197f, 1-(3-(aminomethyl)phenyl)-N-(3-(((cyclopropylmethyl)amino)(2,5-difluorophenyl)methyl)phenyl)-3-(trifluoromethyl)-1H-pyrazole-5-carboxamide], for which the inhibition constant Ki lay within 0.0001 to 0.05 µM. Turning to `NCc1cccc(-n2nc(C(F)(F)F)cc2C(=O)Nc2cccc(C(NCC3CC3)c3ccc(Cl)cc3Cl)c2)c1` (stereo not drawn) [200f, 1-(3-(aminomethyl)phenyl)-N-(3-((2,4-dichlorophenyl)((cyclopropylmethyl)amino)methyl)phenyl)-3-(trifluoromethyl)-1H-pyrazole-5-carboxamide], the Ki is 0.0001 to 0.05 µM.

As to `NCc1cccc(-n2nc(C(F)(F)F)cc2C(=O)Nc2cccc(C(NCC3CC3)c3cccc(F)c3)c2)c1` (stereo not drawn) [195f, 1-(3-(aminomethyl)phenyl)-N-(3-(((cyclopropylmethyl)amino)(3-fluorophenyl)methyl)phenyl)-3-(trifluoromethyl)-1H-pyrazole-5-carboxamide], the Ki is 0.0001 to 0.05 µM. The figure for `NCc1cccc(-n2nc(C(F)(F)F)cc2C(=O)Nc2cccc(C(NCC3CC3)c3ccc(Cl)cc3)c2)c1` (stereo not drawn) [199f] is 0.0001 to 0.05 µM; for `N#Cc1cccc(C(NCC2CC2)c2ccc(F)c(NC(=O)c3cc(C(F)(F)F)nn3-c3cccc(C(=N)N)c3)c2)c1` (single isomer, unassigned; (+)) [236h, (+)-1-(3-carbamimidoylphenyl)-N-(5-((3-cyanophenyl)(cyclopropylmethylamino)methyl)-2-fluorophenyl)-3-(trifluoromethyl)-1H-pyrazole-5-carboxamide] it is 0.0001 to 0.05 µM; for `Nc1nccc2ccc(-n3nc(C(F)(F)F)cc3C(=O)Nc3cc(C(CCC4CC4)n4ccc(=O)[nH]c4=O)ccc3F)cc12` (stereo not drawn) [269b, 1-(1-aminoisoquinolin-7-yl)-N-(5-(3-cyclopropyl-1-(2,4-dioxo-3,4-dihydropyrimidin-1(2H)-yl)propyl)-2-fluorophenyl)-3-(trifluoromethyl)-1H-pyrazole-5-carboxamide] it is 0.0001 to 0.05 µM. As for `NCc1cccc(-n2nc(C(F)(F)F)cc2C(=O)Nc2cccc(C(NCC3CC3)c3ccc(O)cc3)c2)c1` (stereo not drawn) [135c, 1-(3-(aminomethyl)phenyl)-N-(3-(((cyclopropylmethyl)amino)(4-hydroxyphenyl)methyl)phenyl)-3-(trifluoromethyl)-1H-pyrazole-5-carboxamide], the Ki is 0.0001 to 0.05 µM.
